Assay results taken from ChEMBL document CHEMBL4184276, “Curcumin inspired 2-chloro/phenoxy quinoline analogues: Synthesis and biological evaluation as potential anticancer agents” (Bioorg Med Chem Lett, 2018).

Columns and labels:
PC-3 [1] = test: Cytotoxicity against human PC3 cells assessed as reduction in cell viability after 48 hrs by MTT assay; type: functional, cell-based; conditions: PC-3, 48 h
HeLa = test: Cytotoxicity against human HeLa cells assessed as reduction in cell viability after 48 hrs by MTT assay; type: functional, cell-based
HGC-27 = test: Cytotoxicity against human HGC27 cells assessed as reduction in cell viability after 48 hrs by MTT assay; type: functional, cell-based; conditions: HGC-27, 48 h
NCI-H460 [2] = test: Cytotoxicity against human NCI-H460 cells assessed as reduction in cell viability after 48 hrs by MTT assay; type: functional, cell-based; conditions: NCI-H460, 48 h
4T1 = test: Cytotoxicity against mouse 4T1 cells assessed as reduction in cell viability after 48 hrs by MTT assay; type: functional, cell-based; conditions: 4T1, 48 h
DU-145 [3] = test: Cytotoxicity against human DU145 cells assessed as reduction in cell viability after 48 hrs by MTT assay; type: functional, cell-based; conditions: DU-145, 48 h
[4] = Aqueous solubility in milli-Q water at 2 mg incubated for 5 mins followed by sonication for 1 mins measured after 24 hrs by UV-Visible spectroscopic method; type: physicochemical
NCI-H460 [5] = test: Potency index, ratio of curcumin IC50 to compound IC50 for human NCI-H460 cells; type: functional
DU-145 [6] = test: Potency index, ratio of curcumin IC50 to compound IC50 for human DU145 cells; type: functional
PC-3 [7] = test: Potency index, ratio of curcumin IC50 to compound IC50 for human PC3 cells; type: functional

Structure (SMILES)	IC50 (PC-3 [1]) [µM]	IC50 (HeLa) [µM]	IC50 (HGC-27) [µM]	IC50 (NCI-H460 [2]) [µM]	IC50 (4T1) [µM]	IC50 (DU-145 [3]) [µM]	solubility [4]	Ratio IC50 (NCI-H460 [5])	Ratio IC50 (DU-145 [6])	Ratio IC50 (PC-3 [7])
COc1ccc(/C=C/C(=O)/C=C/c2cc3ccccc3nc2Oc2ccc(Br)cc2)cc1OC	> 10	> 10	> 10	> 10	> 10	> 10				
COc1cc(OC)c(OC)cc1/C=C/C(=O)/C=C/c1cc2ccccc2nc1Oc1cccc(Cl)c1	> 10	> 10	> 10	> 10	> 10	> 10				
COc1cc(/C=C/C(=O)CC(=O)/C=C/c2ccc(O)c(OC)c2)ccc1O [CURCUMIN]	18.7			17.1		33.1	Soluble			
COc1ccc(/C=C/C(=O)/C=C/c2cc3ccccc3nc2Oc2ccccc2)c(OC)c1	> 10	> 10	> 10	> 10	> 10	> 10				
COc1ccc(/C=C/C(=O)/C=C/c2cc3ccccc3nc2Oc2ccc(Br)cc2)c(OC)c1	> 10	> 10	> 10	> 10	> 10	> 10				
COc1cc(OC)c(/C=C/C(=O)/C=C/c2cc3ccccc3nc2Oc2ccccc2)c(OC)c1	> 10	> 10	> 10	> 10	> 10	> 10				
COc1ccc(/C=C/C(=O)/C=C/c2cc3ccccc3nc2Oc2cccc(Cl)c2)c(OC)c1	> 10	> 10	> 10	> 10	> 10	> 10				
COc1cc(OC)c(/C=C/C(=O)/C=C/c2cc3ccccc3nc2Oc2cccc(Cl)c2)c(OC)c1	> 10	> 10	> 10	> 10	> 10	> 10				
COc1ccc(/C=C/C(=O)/C=C/c2cc3ccccc3nc2Oc2ccccc2)cc1	> 10	> 10	> 10	> 10	> 10	> 10				
COc1cc(OC)c(OC)cc1/C=C/C(=O)/C=C/c1cc2ccccc2nc1Oc1ccccc1	7.29	12.2	10.5	8.03	7.63	9.22	Soluble	2.1	3.6	2.6
